From PubChem BioAssay (NCI)
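Cells were grown in 96-well plates and exposed to each compound for 48 hours at five concentrations; endpoints were interpolated linearly between bracketing concentrations, or set to the highest concentration if not reached. At the GI50, growth is halved. TGI: concentration producing complete growth inhibition.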

Tests used:
Experiment in all cases: NCI anticancer screen, dose series, 48 h
[1] = system: SK-MEL-2 melanoma
[2] = system: MDA-MB-231 breast
[3] = system: SR leukemia
[4] = system: U251 CNS
[5] = system: RXF 393 renal
[6] = system: COLO 205 colon
[7] = system: RPMI-8226 leukemia
[8] = system: UACC-62 melanoma
[9] = system: SNB-19 CNS
[10] = system: HOP-62 NSCLC
[11] = system: HCT-116 colon
[12] = system: KM12 colon
[13] = system: SF-295 CNS
[14] = system: HOP-92 NSCLC
[15] = system: MCF7 breast
[16] = system: NCI-H460 lung
[17] = system: A549 NSCLC
[18] = system: HCT-15 colon
[19] = system: SK-MEL-28 melanoma
[20] = system: UO-31 renal
[21] = system: CCRF-CEM leukemia
[22] = system: M14 melanoma
[23] = system: HCC-2998 colon
[24] = system: SK-MEL-5 melanoma
[25] = system: MOLT-4 leukemia
[26] = system: HL-60(TB) leukemia
[27] = system: SF-539 CNS
[28] = system: NCI-H23 lung
[29] = system: PC-3 prostate
[30] = system: HS 578T breast
[31] = system: OVCAR-8 ovarian
[32] = system: A498 renal
[33] = system: IGROV1 ovarian
[34] = system: T-47D breast
[35] = system: ACHN renal
[36] = system: SNB-75 CNS
[37] = system: K-562 leukemia
[38] = system: CAKI-1 renal
[39] = system: SF-268 CNS
[40] = system: BT-549 breast
[41] = system: UACC-257 melanoma
[42] = system: NCI-H226 lung
[43] = system: MDA-MB-435
[44] = system: DU-145 prostate
[45] = system: OVCAR-3 ovarian
[46] = system: 786-0 renal
[47] = system: OVCAR-5 ovarian
[48] = system: NCI/ADR-RES ovarian
[49] = system: NCI-H522 lung
[50] = system: OVCAR-4 ovarian
[51] = system: HT29 colon
[52] = system: SN12C renal
[53] = system: MALME-3M melanoma
[54] = system: SW-620 colon
[55] = system: LOX IMVI melanoma
[56] = system: TK-10 renal
[57] = system: SK-OV-3 ovarian
[58] = system: EKVX NSCLC

`C#Cc1nc(C2=C(C)C(OC(C)=O)/C(=N/OC(C)=O)C2)cs1` (stereo not given) showed a GI50 [1] of 27.6 µM, a TGI [1] of over 69.7 µM and a GI50 [2] of 4.62 µM. For the same molecule, the TGI [2] was over 20.6 µM, the GI50 [3] was 0.228 µM and the TGI [3] was 0.649 µM. For the same molecule, the GI50 [4] was 4.58 µM, the TGI [4] was over 26.9 µM and the GI50 [5] was 2.62 µM. It also gave a TGI [5] of 6.03 µM, a GI50 [6] of 20.1 µM and a TGI [6] of over 55.7 µM. For the same molecule, the GI50 [7] was 0.312 µM, the TGI [7] was 1.17 µM and the GI50 [8] was 13.7 µM. The TGI [8] was 29.4 µM, the GI50 [9] was over 59.5 µM and the TGI [9] was over 100 µM. The GI50 [10] was 9.24 µM, the TGI [10] was over 23.6 µM and the GI50 [11] was 13.5 µM. For the same molecule, the TGI [11] was 30.4 µM, the GI50 [12] was 47.4 µM and the TGI [12] was over 100 µM. It also gave a GI50 [13] of 1.84 µM, a TGI [13] of 3.67 µM and a GI50 [14] of 1.73 µM. It also gave a TGI [14] of 3.24 µM, a GI50 [15] of 6.75 µM and a TGI [15] of over 76.6 µM. For the same molecule, the GI50 [16] was over 28.5 µM, the TGI [16] was over 100 µM and the GI50 [17] was 5.39 µM. The TGI [17] was over 100 µM, the GI50 [18] was 6.21 µM and the TGI [18] was 23.8 µM. It also gave a GI50 [19] of 17.1 µM, a TGI [19] of 39 µM and a GI50 [20] of 0.164 µM. The TGI [20] was 0.299 µM, the GI50 [21] was 0.188 µM and the TGI [21] was 0.478 µM. The GI50 [22] was 21.3 µM, the TGI [22] was over 80 µM and the GI50 [23] was 23.2 µM. For the same molecule, the TGI [23] was over 60.9 µM, the GI50 [24] was 19.5 µM and the TGI [24] was 56.1 µM. For the same molecule, the GI50 [25] was 1.85 µM, the TGI [25] was 4.69 µM and the GI50 [26] was 0.587 µM. It also gave a TGI [26] of 1.32 µM, a GI50 [27] of 0.687 µM and a TGI [27] of 1.87 µM. For the same molecule, the GI50 [28] was 1.26 µM, the TGI [28] was 4.86 µM and the GI50 [29] was 4.66 µM. It also gave a TGI [29] of over 42.4 µM, a GI50 [30] of 8.7 µM and a TGI [30] of over 25.9 µM. The GI50 [31] was 9.99 µM, the TGI [31] was 41.6 µM and the GI50 [32] was 27.1 µM. It also gave a TGI [32] of 50.4 µM, a GI50 [33] of 0.745 µM and a TGI [33] of 2.09 µM. For the same molecule, the GI50 [34] was 7.49 µM, the TGI [34] was 30.4 µM and the GI50 [35] was 0.831 µM. The TGI [35] was 7.17 µM, the TGI [36] was over 24.2 µM and the GI50 [37] was 11.8 µM. For the same molecule, the TGI [37] was 53.5 µM, the GI50 [38] was 4.66 µM and the TGI [38] was 11.7 µM. The GI50 [39] was 9.78 µM, the TGI [39] was 45.7 µM and the GI50 [40] was 5.65 µM. The TGI [40] was 13 µM, the GI50 [41] was 17.6 µM and the TGI [41] was 62.8 µM. For the same molecule, the GI50 [42] was over 100 µM, the TGI [42] was over 100 µM and the GI50 [43] was 34.5 µM. It also gave a TGI [43] of over 77.3 µM, a GI50 [44] of 11.5 µM and a TGI [44] of over 70.3 µM. The GI50 [45] was 2.7 µM, the TGI [45] was 7.6 µM and the GI50 [46] was 1.83 µM. It also gave a TGI [46] of 3.33 µM, a GI50 [47] of 7.36 µM and a TGI [47] of over 41.9 µM. For the same molecule, the GI50 [48] was 4.98 µM, the TGI [48] was over 21.3 µM and the GI50 [49] was 0.429 µM. The TGI [49] was 0.937 µM, the GI50 [50] was 6.65 µM and the TGI [50] was 22.1 µM. The GI50 [51] was 2.27 µM, the TGI [51] was 6.67 µM and the GI50 [52] was 10.1 µM. The TGI [52] was 25.4 µM, the GI50 [53] was 1.81 µM and the TGI [53] was 4.86 µM. For the same molecule, the GI50 [54] was 13.3 µM, the TGI [54] was 30.4 µM and the GI50 [55] was 0.0198 µM. It also gave a TGI [55] of 0.0453 µM, a GI50 [56] of 28.3 µM and a TGI [56] of 56.9 µM. For the same molecule, the GI50 [57] was 6.16 µM, the TGI [57] was 20.6 µM and the GI50 [58] was 12 µM. It also gave a TGI [58] of over 61.4 µM.
